{"source": "patent US20210308089A1", "about": "“METHODS OF TREATING AND/OR PREVENTING VIRAL INFECTIONS AND/OR DISEASES CAUSED BY VIRUSES IN A SUBJECT IN NEED THEREOF” (priority 2020, published 2021)", "tested_on": "patients of the REDUCE-IT and earlier EPA placebo-controlled trials", "test": "Example 3: adverse events by risk ratio, icosapent ethyl vs placebo (candidate categories; infectious disease terms of interest)", "details": "R-I", "data": [{"smiles": "CC/C=C\\C/C=C\\C/C=C\\C/C=C\\C/C=C\\CCCC(=O)OCC", "note": "[icosapent ethyl, eicosapentaenoic acid ethyl ester]", "values": [{"measurement": "NNT: Carotid bruit (AE table)", "result": 315}, {"measurement": "NNT: Cholestasis (AE table)", "result": "−1.67e+07"}, {"measurement": "NNT: Chrohn's Disease (AE table)", "result": 2045}, {"measurement": "NNT: Cognitive Decline: Attention disorders and disturbances (AE table)", "result": "−8362005"}, {"measurement": "NNT: Cognitive Decline: Cognitive and attention disorders and disturbances (AE table)", "result": "−8362005"}, {"measurement": "NNT: Cough (AE table)", "result": "−69394"}, {"measurement": "NNT: Decreased Appetite (AE table)", "result": "−215"}, {"measurement": "NNT: Deep Venous Thromboembolism (AE table)", "result": 1364}, {"measurement": "NNT: Depression: Depressed mood disorders and disturbances (AE table)", "result": "−340"}, {"measurement": "NNT: Depression: Depressive disorders (AE table)", "result": "−314"}, {"measurement": "NNT: Depression: Depressive disorders - Agitated depression (AE table)", "result": "−2044"}, {"measurement": "NNT: Depression: Depressive disorders - Depression (AE table)", "result": "−408"}, {"measurement": "NNT: Depression: Depressive disorders - Major depression (AE table)", "result": "−2044"}, {"measurement": "NNT: Depression: Depressive disorders - Persistent depressive disorder (AE table)", "result": "−4088"}, {"measurement": "NNT: Depression: Mood alterations - Depressed mood (AE table)", "result": "−3344802"}, {"measurement": "NNT: Depression: Mood alterations - Depressive symptom (AE table)", "result": 4091}, {"measurement": "NNT: Depression: Mood alterations with depressive symptoms (AE table)", "result": 4096}, {"measurement": "NNT: Dermatitis psoriasiform (AE table)", "result": "−4089"}, {"measurement": "NNT: Dermatitis, allergic (AE table)", "result": 454}, {"measurement": "NNT: Diabetic Nephropathy (AE table)", "result": 4100}, {"measurement": "NNT: ESRD (AE table)", "result": 4092}, {"measurement": "NNT: Ear infection (AE table)", "result": 585}, {"measurement": "NNT: Embolism and Thrombosis (AE table)", "result": "−1358"}, {"measurement": "NNT: Emphysema (AE table)", "result": 511}, {"measurement": "NNT: Epilepsy (AE table)", "result": "−1.67e+07"}, {"measurement": "NNT: Erectile dysfunction (AE table)", "result": 232}, {"measurement": "NNT: Furuncle (AE table)", "result": 818}, {"measurement": "NNT: Gastroenteritis, viral (AE table)", "result": 372}, {"measurement": "NNT: Gastroesophageal reflux (AE table)", "result": 682}, {"measurement": "NNT: Gingivitis (AE table)", "result": 818}, {"measurement": "NNT: Glomerulonephritis and Nephrotic Syndrome (AE table)", "result": 1023}, {"measurement": "NNT: Guttate psoriasis (AE table)", "result": "−4089"}, {"measurement": "NNT: Helicobacter infection (AE table)", "result": 1023}, {"measurement": "NNT: Hepatitis C (AE table)", "result": "−4089"}, {"measurement": "NNT: Herpes Zoster (AE table)", "result": 1371}, {"measurement": "NNT: Herpes simplex (AE table)", "result": 1364}, {"measurement": "NNT: Hyperglycemia (AE table)", "result": 186}, {"measurement": "NNT: Hyperkalemia (AE table)", "result": 178}, {"measurement": "NNT: Hypertension (AE table)", "result": 171}, {"measurement": "NNT: Hypertensive Crisis (AE Table)", "result": 315}, {"measurement": "NNT: Hypokalemia (AE table)", "result": "−815"}, {"measurement": "NNT: Hypomagnesemia (AE table)", "result": 292}, {"measurement": "NNT: Infected bite (AE table)", "result": 2046}, {"measurement": "NNT: Influenza (AE table)", "result": 515}, {"measurement": "NNT: Influenza like illness (AE table)", "result": 1024}, {"measurement": "NNT: Jaundice cholestatic (AE table)", "result": "−1022"}, {"measurement": "NNT: Large intestine polyps (AE table)", "result": 511}, {"measurement": "NNT: Limb Fractures and Dislocations (AE table)", "result": 1024}, {"measurement": "NNT: Lupus (AE table)", "result": 4090}, {"measurement": "NNT: Microalbuminuria (AE table)", "result": 372}, {"measurement": "NNT: Migraine (AE table)", "result": "−584"}, {"measurement": "NNT: Mucosal inflammation (AE table)", "result": 2046}, {"measurement": "NNT: Multiple Sclerosis (AE table)", "result": 4090}, {"measurement": "NNT: Muscle spasms (AE table)", "result": 95}, {"measurement": "NNT: NASH (AE table)", "result": 818}, {"measurement": "NNT: NASH for b/l NFS >0.675 (AE table)", "result": 273}, {"measurement": "NNT: NASH+Hepatic Steatosis for NFS >0.675 (AE table)", "result": 209}, {"measurement": "NNT: Nasopharyngitis, Mild Severity (AE table)", "result": 516}, {"measurement": "NNT: Nephrolithiasis (AE table)", "result": "−1017"}, {"measurement": "NNT: Nephropathies (AE table)", "result": 455}, {"measurement": "NNT: Nephrotic Syndrome (AE table)", "result": 4090}, {"measurement": "NNT: Orthopnea (AE table)", "result": 1023}, {"measurement": "NNT: PTSD (AE table)", "result": 4092}, {"measurement": "NNT: Pancytopenia (AE table)", "result": 1023}, {"measurement": "NNT: Pneumonia (AE table)", "result": 293}, {"measurement": "NNT: Proteinuria (AE table)", "result": 455}, {"measurement": "NNT: Psoriasis (AE table)", "result": "−341"}, {"measurement": "NNT: Psoriatic Conditions (AE table)", "result": "−292"}, {"measurement": "NNT: Psychosis: Psychotic disorder NEC (AE table)", "result": 4091}, {"measurement": "NNT: Pulmonary Edema (AE table)", "result": 511}, {"measurement": "NNT: Respiratory Failure (AE table)", "result": 2050}, {"measurement": "NNT: Respiratory tract infection (AE table)", "result": 1368}, {"measurement": "NNT: Rheumatoid Arthritis (AE table)", "result": 1363}, {"measurement": "NNT: Rhinitis (AE table)", "result": 682}, {"measurement": "NNT: Schizophrenia NEC (AE table)", "result": 4091}, {"measurement": "NNT: Sepsis (AE table)", "result": 455}, {"measurement": "NNT: Severe chronic obstructive pulmonary disease (AE table)", "result": 1365}, {"measurement": "NNT: Severe dermatitis, allergic (AE table)", "result": 1363}, {"measurement": "NNT: Severe gastroenteritis (AE table)", "result": 1023}, {"measurement": "NNT: Severe sepsis (AE table)", "result": 585}, {"measurement": "NNT: Severe systemic inflammatory response syndrome (AE table)", "result": 818}, {"measurement": "NNT: Severe urinary tract infection (AE table)", "result": 585}, {"measurement": "NNT: Systemic inflammatory response syndrome (AE table)", "result": 682}, {"measurement": "NNT: Tooth infection (AE table)", "result": 455}, {"measurement": "NNT: Ulcerative Colitis (AE table)", "result": 4090}, {"measurement": "NNT: Upper respiratory tract infection (AE table)", "result": 516}, {"measurement": "NNT: Vascular hypertensive disorder (AE table)", "result": 124}, {"measurement": "NNT: Vulvovaginal mycotic infection (AE table)", "result": 682}, {"measurement": "NNT: Wheezing (AE table)", "result": 315}, {"measurement": "Risk Ratio (95% CI): ADHD (AE table)", "result": "1.000 (0.141 to 7.097) −1"}, {"measurement": "Risk Ratio (95% CI): Allergic sinusitis (AE table)", "result": "0.500 (0.092 to 2.729) 3"}, {"measurement": "Risk Ratio (95% CI): Alzheimer's Disease (AE table)", "result": "1.000 (0.290 to 3.452) −1"}, {"measurement": "Risk Ratio (95% CI): Asthma (AE table)", "result": "1.076 (0.742 to 1.560) −1"}, {"measurement": "Risk Ratio (95% CI): Atelectasis (AE table)", "result": "0.500 (0.243 to 1.030) 3"}, {"measurement": "Risk Ratio (95% CI): Bipolar Disease (AE table)", "result": "0.333 (0.035 to 3.204) 4"}, {"measurement": "Risk Ratio (95% CI): Blood CPK increased (AE table)", "result": "0.684 (0.485 to 0.964) 2"}, {"measurement": "Risk Ratio (95% CI): Blood glucose increased (AE table)", "result": "0.400 (0.126 to 1.275) 3"}, {"measurement": "Risk Ratio (95% CI): Bone Fractures (AE table)", "result": "2.000 (0.181 to 22.053) −3"}, {"measurement": "Risk Ratio (95% CI): Bronchiectasis (AE table)", "result": "0.500 (0.125 to 1.998) 3"}, {"measurement": "Risk Ratio (95% CI): Bronchitis chronic (AE table)", "result": "0.667 (0.273 to 1.630) 2"}, {"measurement": "Risk Ratio (95% CI): CKD (AE table)", "result": "1.123 (0.766 to 1.646) −1"}, {"measurement": "Risk Ratio (95% CI): COPD (AE table)", "result": "1.084 (0.837 to 1.405) −1"}, {"measurement": "Risk Ratio (95% CI): Carotid bruit (AE table)", "result": "0.435 (0.207 to 0.913) 3"}, {"measurement": "Risk Ratio (95% CI): Cholestasis (AE table)", "result": "1.000 (0.063 to 15.986) −1"}, {"measurement": "Risk Ratio (95% CI): Chrohn's Disease (AE table)", "result": "0.333 (0.035 to 3.204) 4"}, {"measurement": "Risk Ratio (95% CI): Cognitive Decline: Attention disorders and disturbances (AE table)", "result": "1.000 (0.141 to 7.097) −1"}]}]}
